The subject of data set [1] is intact cells. Kind of data set: Screening assay 2: enhancement and inhibition of mitochondrial energy producing function in intact cells (FCCP). Further details: key to Convergent (FCCP): increase in mitochondrial oxygen consumption: (+): Brackets [( )] indicate an intermediate effect, i.e. (+++) is between ++ and +++; graded either +, ++ or +++ in increasing order of potency; (++): Brackets [( )] indicate an intermediate effect, i.e. (+++) is between ++ and +++; graded either +, ++ or +++ in increasing order of potency; (+++) is between ++ and +++; graded either +, ++ or +++ in increasing order of potency. The note with it: for Toxicity: lowest concentration during compound titration at which a decrease in oxygen consumption is seen: screening assay 2; for Convergent (FCCP): increase in mitochondrial oxygen consumption: screening assay 2, uncoupled conditions. Format: cell-based, human. The protocol: (§1) Measurement of mitochondrial respirationise performed in a high-resolution oxygraph (Oxygraph-2k, Oroboros Instruments, Innsbruck, Austria) at a constant temperature of 37° C. Isolated human platelets, white blood cells, fibroblasts, human heart muscle fibers or other cell types containing live mitochondria are suspended in a 2 mL glass chamber at a concentration sufficient to yield oxygen consumption in the medium of 10 pmol O2 s^−1 mL^−1.
In the second protocol the same buffer is used as described above. After basal respiration is established, the mitochondrial uncoupler FCCP is added at a concentration of 2 nM to increase metabolic demand.

The subject of data set [2] is intact human blood cells with inhibited complex I in human plasma. Nature of the data set: Screening assay 4: cells with inhibited respiratory complex I in human plasma. The note with it: screening assay 4, complex I inhibited. Further details: key: (+): Brackets [( )] indicate an intermediate effect, i.e. (+++) is between ++ and +++; graded either +, ++ or +++ in increasing order of potency; (++): Brackets [( )] indicate an intermediate effect, i.e. (+++) is between ++ and +++; graded either +, ++ or +++ in increasing order of potency; (+++) is between ++ and +++; graded either +, ++ or +++ in increasing order of potency. Format: cell-based. The protocol: Measurement of mitochondrial respirationise performed in a high-resolution oxygraph (Oxygraph-2k, Oroboros Instruments, Innsbruck, Austria) at a constant temperature of 37° C. […] Intact human blood cells are incubated in plasma from the same donor. […] The experiment is terminated by addition of Antimycin at final concentration 1 μg/mL and any residual non-mitochondrial oxygen consumption is measured.

In data set [3] the test system is intact cells. Nature of the data set: Screening assay 3: uncoupling in intact cells. On Uncoupling: level of oxygen consumption after addition of oligomycin: tested at 1000 µM. In kind it is cell-based, human. Details: key: (+): Brackets [( )] indicate an intermediate effect, i.e. (+++) is between ++ and +++; graded either +, ++ or +++ in increasing order of potency; (++): Brackets [( )] indicate an intermediate effect, i.e. (+++) is between ++ and +++; graded either +, ++ or +++ in increasing order of potency; (+++) is between ++ and +++; graded either +, ++ or +++ in increasing order of potency. The settings on record: for Uncoupling: level of oxygen consumption after addition of oligomycin: screening assay 3; for Convergent (Routine): increase in mitochondrial oxygen consumption: screening assay 3, 1 mM compound. On the procedure: Measurement of mitochondrial respirationise performed in a high-resolution oxygraph (Oxygraph-2k, Oroboros Instruments, Innsbruck, Austria) at a constant temperature of 37° C. […] In the third protocol, the same buffer as described above is used. […] Subsequently, the ATP-synthase-inhibitor Oligomycin is added. A reduction in respiration is a measure of how much of the oxygen consumption that is coupled to ATP synthesis. No, or only a slight, reduction indicate that the compound is inducing a proton leak over the inner mitochondrial membrane. The uncoupler FCCP is then titrated to induce maximum uncoupled respiration. […] The experiment is terminated by the addition of 1 μg/mL of the complex III inhibitor Antimycin to measure non-mitochondrial oxygen consumption.

The test system of data set [4] is cells with inhibited respiratory complex I. Kind of data set: Screening assay 1: enhancement of mitochondrial energy producing function in cells with inhibited respiratory complex I. Format: cell-based, human. Further details: key: (+): Brackets [( )] indicate an intermediate effect, i.e. (+++) is between ++ and +++; graded either +, ++ or +++ in increasing order of potency; (++): Brackets [( )] indicate an intermediate effect, i.e. (+++) is between ++ and +++; graded either +, ++ or +++ in increasing order of potency; (+++) is between ++ and +++; graded either +, ++ or +++ in increasing order of potency. The note with it: screening assay 1, complex I inhibited with rotenone 2 μM. The protocol:
as §1
Cells are placed in a buffer containing 110 mM sucrose, HEPES 20 mM, taurine 20 mM, K-lactobionate 60 mM, MgCl2 3 mM, KH2PO4 10 mM, EGTA 0.5 mM, BSA 1 g/l, pH 7.1. […] Compounds dissolved in DMSO are titrated in a range of 10 μM to 10 mM final concentration. Subsequently, cell membranes are permeabilised with digitonin (1 mg/1*10^6 plt) to allow entry of extracellularly released energy substrate or cell impermeable energy substrates. After stabilized respiration, Succinate 10 mM is added as a reference to enable respiration downstream of complex I. After the respiration stabilized the experiment is terminated by addition of Antimycin at final concentration 1 μg/mL and any residual non-mitochondrial oxygen consumption is measured. An increase in respiration rate in the described protocol is tightly coupled to ATP synthesis by oxidative phosphorylation unless cells are uncoupled (i.e. proton leak without production of ATP). Uncoupling is tested for by addition of the ATP synthase inhibitor oligomycin (1-2 μg mL^−1) in a protocol 3 where the extent of uncoupling corresponds to the respiratory rate following oligomycin addition.

In data set [5] the test system is intact human platelets. Nature of the data set: Intervention on rotenone- or metformin-induced lactate production with cell-permeable succinate prodrugs. The note with it: for effect on rotenone-induced lactate production: 2 μM rotenone, repeated additions of 250 μM; for effect on metformin-induced lactate production: 10 mM metformin, additions of 250 μM each 30 minutes. In kind it is cell-based. On the procedure: Lactate levels are determined every 30 min using the Lactate Pro™ 2 blood lactate test meter (Arkray, Alere A B, Lidingö, Sweden) or similar types of measurements. Incubation is performed at 37° C. pH is measured at start, after 4 and after 8 h (or more frequently) of incubation using a Standard pH Meter, e.g. PHM210 (Radiometer, Copenhagen, Denmark). Drug candidates are added to the assay from start or following 30-60 min at concentrations within the range 10 μM-5 mM. […] In order to evaluate the specificity of the drug candidate, it is also tested in combination with a down-stream inhibitor of respiration such as the complex III inhibitor Antimycin at 1 μg/mL, which should abolish the effect of the drug candidate and restore the production of lactate.
Lactate levels were measured in intervals of 30 min with the onset of the experiment.

“Also recorded” adds a separate entry of the source.

As to `CCC(=O)N[C@@H](CSC(=O)CCC(=O)O)C(=O)O` [Compound 01-041, (R)-4-(2-carboxy-2-propionamidoethylthio)-4-oxobutanoic acid], in data set [1], the “Toxicity: lowest concentration during compound titration at which a decrease in oxygen consumption is seen” value was found to be 5 mM and the “Convergent (FCCP): increase in mitochondrial oxygen consumption” value (from here on “Convergent (FCCP): increase”) is “+++”. Besides, the “CII (plasma): increase in mitochondrial oxygen consumption” value (from here on “CII (plasma): increase”) in data set [2] was “+”. In addition, in data set [3], the “Uncoupling: level of oxygen consumption after addition of oligomycin” value (“Uncoupling: level of oxygen consumption” for short) is given as “(+)” and the “Convergent (Routine): increase in mitochondrial oxygen consumption” value (from here on “Convergent (Routine): increase”) is recorded as “+”. The “CII: increase in mitochondrial oxygen consumption” value (“CII: increase” for short) in data set [4] is “++”.
In the case of `CC(=O)NCCSC(=O)CCC(=O)O` [Compound 01-108, 4-(2-acetamidoethylthio)-4-oxobutanoic acid], in data set [1], the “Toxicity: lowest concentration during compound titration at which a decrease in oxygen consumption is seen” value amounted to 10 mM and the “Convergent (FCCP): increase” value was “++”. The “CII (plasma): increase” value in data set [2] was “(+)”. Also, in data set [3], the “Uncoupling: level of oxygen consumption” value is “+” and the “Convergent (Routine): increase” value is “++”. Besides, the “CII: increase” value in data set [4] is given as “(++)”.
`CCC(=O)NCCSC(=O)CCC(=O)O` [Compound 01-114, 4-oxo-4-(2-propionamidoethylthio)butanoic acid]: in data set [1], the “Toxicity: lowest concentration during compound titration at which a decrease in oxygen consumption is seen” value is on record as 10 mM and the “Convergent (FCCP): increase” value is listed as “++”. Moreover, the “CII (plasma): increase” value in data set [2] is “+”. For the same molecule, in data set [3], the “Uncoupling: level of oxygen consumption” value is “(+)” and the “Convergent (Routine): increase” value is given as “+++”. Moreover, the “CII: increase” value in data set [4] is “++”.
Take `CC(=O)OC(CCCOC(=O)CCC(=O)O)OC(=O)CCC(=O)O` (centres unmarked) [Compound 01-134]: in data set [1], the “Toxicity: lowest concentration during compound titration at which a decrease in oxygen consumption is seen” value was 10 mM and the “Convergent (FCCP): increase” value is listed as “(+)”. Further, the “CII (plasma): increase” value in data set [2] is “(+)”. In data set [3], the “Uncoupling: level of oxygen consumption” value is on record as “(+)” and the “Convergent (Routine): increase” value is recorded as “++”. Besides, the “CII: increase” value in data set [4] is on record as “(+)”.
`CC(=O)OC(CCCN1C(=O)c2ccccc2C1=O)OC(=O)CCC(=O)O` (centres unmarked) [Compound 01-150, 4-(1-acetoxy-4-(1,3-dioxoisoindolin-2-yl)butoxy)-4-oxobutanoic acid]: in data set [1], the “Toxicity: lowest concentration during compound titration at which a decrease in oxygen consumption is seen” value is recorded as 2 mM and the “Convergent (FCCP): increase” value is recorded as “+”. Further, the “CII (plasma): increase” value in data set [2] is “(+)”. Also, in data set [3], the “Uncoupling: level of oxygen consumption” value was “(+)” and the “Convergent (Routine): increase” value is “+++”. In addition, the “CII: increase” value in data set [4] is listed as “++”.
For `CCC(=O)N[C@@H](CSC(=O)CCC(=O)SC[C@H](NC(=O)CC)C(=O)N(CC)CC)C(=O)N(CC)CC` [Compound 01-185, S,S-bis((R)-3-(diethylamino)-3-oxo-2-propionamidopropyl) butanebis(thioate)], in data set [1], the “Toxicity: lowest concentration during compound titration at which a decrease in oxygen consumption is seen” value turned out to be 2 mM and the “Convergent (FCCP): increase” value was “+”. Moreover, in data set [2], the “CII (plasma): increase” value is on record as “+”. Besides, in data set [3], the “Uncoupling: level of oxygen consumption” value was “(+)” and the “Convergent (Routine): increase” value is “(+)”. For the same molecule, in data set [4], the “CII: increase” value is recorded as “+”.
For `CC(=O)NCC(C)(C)SC(=O)CCC(=O)O` [Compound 01-188, 4-(1-acetamido-2-methylpropan-2-ylthio)-4-oxobutanoic acid], in data set [1], the “Toxicity: lowest concentration during compound titration at which a decrease in oxygen consumption is seen” value is on record as 5 mM and the “Convergent (FCCP): increase” value is recorded as “+++”. In addition, the “CII (plasma): increase” value in data set [2] is “+”. Besides, in data set [3], the “Uncoupling: level of oxygen consumption” value is “(+)” and the “Convergent (Routine): increase” value is given as “+++”. In addition, the “CII: increase” value in data set [4] was “+”.
As for `CCN(CC)C(=O)COCCSC(=O)CCC(=O)O` [Compound 01-193, 4-(2-(2-(diethylamino)-2-oxoethoxy)ethylthio)-4-oxobutanoic acid], in data set [1], the “Toxicity: lowest concentration during compound titration at which a decrease in oxygen consumption is seen” value came out at 5 mM and the “Convergent (FCCP): increase” value is given as “+”. In addition, the “CII (plasma): increase” value in data set [2] was “(+)”. In data set [3], the “Uncoupling: level of oxygen consumption” value was “+” and the “Convergent (Routine): increase” value was “(++)”. Further, the “CII: increase” value in data set [4] was “+”.
Turning to `CCC(=O)N[C@@H](CSC(=O)CCC(=O)SC[C@H](NC(=O)CC)C(=O)OC)C(=O)OC` [Compound 01-205, (R)-methyl 3-(4-((R)-3-methoxy-3-oxo-2-propionamidopropylthio)-4-oxobutanoylthio)-2-propionamidopropanoate], in data set [1], the “Toxicity: lowest concentration during compound titration at which a decrease in oxygen consumption is seen” value was 5 mM and the “Convergent (FCCP): increase” value is recorded as “++”. Besides, the “CII (plasma): increase” value in data set [2] is listed as “+”. Also, in data set [3], the “Uncoupling: level of oxygen consumption” value is “(+)” and the “Convergent (Routine): increase” value is given as “+++”. Moreover, the “CII: increase” value in data set [4] is reported as “++”.
With `CC(=O)OC(C)OC(=O)CCC(=O)OC(C)OC(C)=O` (centres unmarked) [NV189, Succinic acid bis-(1-acetoxy-ethyl) ester], in data set [5], the “effect on rotenone-induced lactate production” value is “attenuated; also recorded: brought back to normal” and the “effect on metformin-induced lactate production” value is “significantly decreased”.
`CC(=O)OCOC(=O)CCC(=O)OC(C)OC(C)=O` (centres unmarked) [NV241, Succinic acid 1-acetoxy-ethyl ester acetoxymethyl ester]: in data set [5], the “effect on rotenone-induced lactate production” value is reported as “attenuated” and the “effect on metformin-induced lactate production” value is “significantly decreased”.
As for succinate [reference compound], the “effect on metformin-induced lactate production” value in data set [5] is listed as “did not change this; also recorded: did not reduce”.
